Source: article doi:10.1101/2025.11.20.689572v1 (biorxiv, 2025)

Biological target: T1, M5 (Homo sapiens, UniProt P08912)
T1 construct: gene CHRM5; full-length receptor; HEK293 with TRUPATH sensors (function)
T1 sequence (P08912 1-532): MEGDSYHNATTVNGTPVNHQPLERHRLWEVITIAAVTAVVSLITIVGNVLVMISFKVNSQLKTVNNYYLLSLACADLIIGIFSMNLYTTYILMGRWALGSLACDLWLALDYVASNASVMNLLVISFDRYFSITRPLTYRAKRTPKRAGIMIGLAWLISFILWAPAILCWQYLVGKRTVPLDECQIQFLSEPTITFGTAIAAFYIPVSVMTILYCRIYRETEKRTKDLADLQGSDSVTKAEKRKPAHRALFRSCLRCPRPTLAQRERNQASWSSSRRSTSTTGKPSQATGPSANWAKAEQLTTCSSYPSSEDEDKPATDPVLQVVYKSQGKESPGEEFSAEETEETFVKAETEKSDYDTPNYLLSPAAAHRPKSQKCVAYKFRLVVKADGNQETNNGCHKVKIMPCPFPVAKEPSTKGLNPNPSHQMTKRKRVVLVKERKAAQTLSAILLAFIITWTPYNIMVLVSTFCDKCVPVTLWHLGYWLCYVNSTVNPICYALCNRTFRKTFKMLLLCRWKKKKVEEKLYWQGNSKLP
Assay: competitive radioligand binding, HEK293 membranes

In the case of `CCCCCCOc1nsnc1C1=CCCNC1` [N-desmethylxanomeline], the Ki is reported as 93.3 nM.
